Reference: PMC5765510, “One pot synthesis of GDP‐mannose by a multi‐enzyme cascade for enzymatic assembly of lipid‐linked oligosaccharides” (Biotechnology and Bioengineering, 2017)

Legend:
Format in all cases: biochemical
1D-Ppk2 (His6-1D-Ppk2) = molecular target: T1, 1D-Ppk2 (His6-1D-Ppk2) (Pseudomonas aeruginosa, UniProt Q9I154); test: polyphosphate-dependent phosphorylation, HPAEC-UV; details: 4 mM PolyP14, 10 mM MgCl2, pH 7.5, 30 °C; reversible
T1 construct: gene PA2428; N-terminal His6 tag, codon-optimised synthetic gene, pET-28a(+), expressed in E. coli BL21-Gold(DE3), IMAC purified, 38 kDa
T1 sequence (Q9I154 1-304): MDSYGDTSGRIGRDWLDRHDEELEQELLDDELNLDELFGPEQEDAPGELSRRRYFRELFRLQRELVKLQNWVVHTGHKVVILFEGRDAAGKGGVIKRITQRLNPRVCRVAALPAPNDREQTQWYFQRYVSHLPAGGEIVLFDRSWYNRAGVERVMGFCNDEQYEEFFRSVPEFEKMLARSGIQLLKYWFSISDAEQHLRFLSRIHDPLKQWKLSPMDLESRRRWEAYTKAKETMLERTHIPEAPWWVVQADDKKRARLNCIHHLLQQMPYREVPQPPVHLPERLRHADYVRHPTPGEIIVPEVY

His6-Glk = molecular target: T2, His6-Glk (Escherichia coli, UniProt P0A6V8); test: man6P formation, HPAEC-UV/CD; details: 10 mM MgCl2, pH 7.5, 30 °C
T2 construct: N-terminal His6 tag, pET-28a(+), expressed in E. coli BL21-Gold(DE3), IMAC purified, 39 kDa
T2 sequence (P0A6V8 1-321): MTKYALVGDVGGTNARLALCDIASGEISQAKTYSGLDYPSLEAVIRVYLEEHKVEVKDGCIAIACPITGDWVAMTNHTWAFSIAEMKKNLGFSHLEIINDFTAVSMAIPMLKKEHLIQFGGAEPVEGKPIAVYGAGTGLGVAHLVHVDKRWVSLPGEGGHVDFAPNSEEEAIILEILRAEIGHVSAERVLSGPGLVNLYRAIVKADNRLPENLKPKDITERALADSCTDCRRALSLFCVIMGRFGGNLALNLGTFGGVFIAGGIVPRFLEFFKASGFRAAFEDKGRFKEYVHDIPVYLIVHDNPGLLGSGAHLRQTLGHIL

[1] = molecular target: T3, ManB-His6 (ManB-His6/ManC) (Escherichia coli, UniProt P24175); test: man1P/man6P equilibrium, HPAEC-CD; details: 1.8 mM, 0.25 mM glucose-1,6-bisphosphate, 10 mM MgCl2, pH 7.5, 30 °C
T3 construct: C-terminal His6 ManB co-expressed and co-purified with untagged ManC, E. coli BL21-Gold(DE3), 50 kDa; ManB/ManC ratio only estimated 1:1; with Mannose-1-phosphate guanylyltransferase
T3 sequence (P24174 whole entry): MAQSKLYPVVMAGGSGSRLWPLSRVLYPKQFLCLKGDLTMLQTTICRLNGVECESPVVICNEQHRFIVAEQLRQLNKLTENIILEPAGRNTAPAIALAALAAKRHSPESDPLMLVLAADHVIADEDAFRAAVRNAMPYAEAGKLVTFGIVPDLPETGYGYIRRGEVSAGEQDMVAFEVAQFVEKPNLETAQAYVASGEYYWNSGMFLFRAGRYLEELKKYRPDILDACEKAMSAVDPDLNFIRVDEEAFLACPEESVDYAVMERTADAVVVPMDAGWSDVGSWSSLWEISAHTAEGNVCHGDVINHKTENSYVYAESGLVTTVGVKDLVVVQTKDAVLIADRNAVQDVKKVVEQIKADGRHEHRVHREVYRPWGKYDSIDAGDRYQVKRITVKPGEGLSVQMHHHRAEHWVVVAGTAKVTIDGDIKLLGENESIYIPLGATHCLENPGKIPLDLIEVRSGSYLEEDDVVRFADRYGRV
T3 sequence (P24175 whole entry): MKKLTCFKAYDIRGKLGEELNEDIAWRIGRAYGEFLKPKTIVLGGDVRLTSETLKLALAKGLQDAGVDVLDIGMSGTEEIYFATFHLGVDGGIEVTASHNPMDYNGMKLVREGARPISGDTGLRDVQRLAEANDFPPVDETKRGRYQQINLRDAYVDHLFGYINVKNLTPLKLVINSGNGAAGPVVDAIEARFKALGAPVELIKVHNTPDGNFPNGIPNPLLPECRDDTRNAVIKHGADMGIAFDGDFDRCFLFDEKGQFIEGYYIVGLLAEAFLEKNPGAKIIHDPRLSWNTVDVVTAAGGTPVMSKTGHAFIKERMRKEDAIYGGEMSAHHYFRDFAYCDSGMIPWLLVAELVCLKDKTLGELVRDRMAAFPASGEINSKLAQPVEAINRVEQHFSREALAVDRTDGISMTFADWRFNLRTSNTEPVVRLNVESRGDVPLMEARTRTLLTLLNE

Nc1ncnc2c1ncn2[C@@H]1O[C@H](COP(=O)(O)OP(=O)(O)O)[C@@H](O)[C@H]1O [ADP]
polyphosphate-dependent phosphorylation, HPAEC-UV (1D-Ppk2 (His6-1D-Ppk2)): phosphorylation of ADP and GDP, respectively, by His6‐1D‐Ppk2 are equilibrium reactions

Nc1ncnc2c1ncn2[C@@H]1O[C@H](COP(=O)(O)OP(=O)(O)OP(=O)(O)O)[C@@H](O)[C@H]1O [ATP]
man6P formation, HPAEC-UV/CD (His6-Glk; mannose co-substrate): conversion of ATP and mannose to man6P and ADP is irreversible

Nc1nc2c(ncn2[C@@H]2O[C@H](COP(=O)(O)OP(=O)(O)O)[C@@H](O)[C@H]2O)c(=O)[nH]1 [GDP]
polyphosphate-dependent phosphorylation, HPAEC-UV (1D-Ppk2 (His6-1D-Ppk2)): phosphorylation of ADP and GDP, respectively, by His6‐1D‐Ppk2 are equilibrium reactions

O=P(O)(O)O[C@H]1O[C@H](CO)[C@@H](O)[C@H](O)[C@@H]1O [man1P]
man1P/man6P equilibrium, HPAEC-CD [1]: equilibrium conversion of man1P to man6P catalyzed by the ManB‐His6/ManC complex

OC[C@H]1OC(O)[C@@H](O)[C@@H](O)[C@@H]1O (some centres unmarked) [mannose]
man6P formation, HPAEC-UV/CD (His6-Glk; ATP 1.7 mM, irreversible): conversion of ATP and mannose to man6P and ADP is irreversible
